In patent EP0647632A1, “NOVEL BENZ[…]” (YAMANOUCHI PHARMACEUTICAL CO. LTD., priority 1992, dated 1994):

Columns and labels:
[1] = biological target: T1, CCK-B receptor (Rattus norvegicus, UniProt P30553); assay: Binding activity to CCK-B receptor: displacement of [125I]BH.CCK-8 from rat whole brain membrane sample; set-up: species or system SD rats; conditions: rat brain membranes, [125I]BH.CCK-8, 25°C, 120 minutes; read-out: CCK-B Binding IC₅₀
T1 construct: freezed at -80°C for storage as a membrane sample; from tissue; host or cells: SD rat whole brain membrane preparation
T1 sequence (P30553 1-452): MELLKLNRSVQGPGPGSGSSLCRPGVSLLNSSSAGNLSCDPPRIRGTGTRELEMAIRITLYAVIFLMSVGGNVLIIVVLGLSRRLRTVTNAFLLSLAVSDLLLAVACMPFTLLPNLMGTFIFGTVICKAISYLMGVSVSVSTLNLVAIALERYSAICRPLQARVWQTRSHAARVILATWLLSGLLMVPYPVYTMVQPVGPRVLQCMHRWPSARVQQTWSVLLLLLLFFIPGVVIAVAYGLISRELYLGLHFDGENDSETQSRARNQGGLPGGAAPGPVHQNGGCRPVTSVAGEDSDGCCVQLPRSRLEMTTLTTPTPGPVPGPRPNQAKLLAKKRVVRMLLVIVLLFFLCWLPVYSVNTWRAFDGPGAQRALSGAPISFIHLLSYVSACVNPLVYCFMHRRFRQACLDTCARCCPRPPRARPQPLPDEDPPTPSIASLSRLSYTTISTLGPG
Protocol: About 100 conscious SD rats were sacrificed by decapitation, and immediately thereafter the whole brain was extracted. The whole brain was homogenized using a Teflon-glass homogenizer in a 0.32M sucrose aqueous solution in a volume of 10 times the whole brain. The resulting homogenate was centrifuged in a cooled centrifugator at 900 × g for 10 minutes, and the supernatant was further centrifuged at 11,500 × g for 15 minutes. The resulting sediment was suspended in a 0.08% Triton X-100 and a 50 mM Tris-HCl buffering solution (pH 7.4). After allowing the suspension to stand for 30 minutes, the suspension was again centrifuged at 11,500 × g for 15 minutes, and the sediment was washed twice with each of 5 mM and 50 mM Tris-HCl buffers by centrifuging operations. The resulting sediment was suspended in a 50 mM Tris-HCl buffer, and freezed at -80°C for storage as a membrane sample.
After thawing the membrane sample at room temperature, it was diluted with a 10 mM HEPES buffer (130 mM NaCl, 5 mM MgCl₂·1mM EGTA, 0.25 mg/ml bacitracin, pH 6.5) and, after incubating at 25°C for 120 minutes in the presence of [¹²⁵I]BH.CCK-8, B/F separation was performed by suction filtration. The non-specific binding was determined in the presence of 1 µM of CCK-8. The amount of the labelled ligand bonded to the receptor was measured by a γ-counter. A Ki (CCK-B) value was determined from a displacement curve of the test compound by taking the maximum binding amount of the labelled ligand to the receptor as 100%.

[2] = tested on: Gastric Acid Secretion Stimulated by Pentagastrin; assay: Inhibition of pentagastrin-stimulated gastric acid secretion in anesthetized rats with perfused stomach, intravenous administration; format: in vivo, SD species rats; conditions: SD rats, urethane anesthesia, pentagastrin 15 µg/kg/hour i.v., test drug intravenous, dose 0.1 µmol/kg
Description: (i) Method of Measurement: A cannula was inserted into a trachea of rats anesthetized with urethane (1.25 g/kg intraperitoneal administration) and abdomen was incised to expose stomach and duodenum. After ligating the cardiac portion, a polyethylene cannula was set in the forestomach portion. Further, a small incision was given to the duodenum, and a polyethylene cannula was inserted from the incised portion to a direction of the stomach inside. In order to fix the cannula, the pylorus portion was ligated. A physiological saline (adjusted to pH 7.0) was perfused from forestomach portion to the pylorus portion at a rate of 3 ml/minute. The gastric acid secretion was measured by continuously titrating the perfusate by means of a pH-stat (AUT-201, produced by Toa Electronics Ltd.). The continuous titration was performed by titrating with a 25 mM sodium hydroxide solution using a titration end point of pH 7.0. The results were determined as a gastric acid analysis at 10 minutes intervals (µEq/10 minutes). Then, pentagastrin was intravenously administered (15 µg/kg/hour). After injection of pentagastrin, the acid secretion was increased, and 60 minutes after the injection, the acid secretion reached to its maximum value and stabilized. Thereafter, a test drug was intravenously administered, and the gastric acid secretion was measured. From the gastric acid secretion amount after the test drug injection, a gastric acid secretion inhibitory ratio was calculated by taking the maximum value after the pentagastrin injection as 100%. In this test, two species of rats, i.e., Wistar species rats and SD species rats, were used as test animals, but the embodiments obtained by using the SD species rats are described below. The compounds of the present invention show from 9 to 89% gastric acid secretion inhibitory effects by the administration at a dose of 0.1 µmol/kg. The embodiments are shown below.

[3] = tested on: Gastric Acid Secretion Stimulated by Pentagastrin; assay: Inhibition of pentagastrin-stimulated gastric acid secretion in Heidenhain pouch dogs, oral administration; format: in vivo, beagle dogs; conditions: pentagastrin 8 µg/kg/hr infusion, test drug oral
Description: (ii) Method of Measurement: Male beagle dogs (7 to 12 kg) fasted overnight was used and subjected to peritoneotomy under GOF anesthesia. After amputating the corpus ventriculi portion parallel to the curvatura ventriculi major, a metal pouch was retained in the suture-closed epigastric region to prepare Heidenhain pouch dogs. The dogs under healthy conditions after two months from the operation were presented to the experiments. Each of the pouch dogs was used at one week intervals.
Pentagastrin was continuously infused (8 µg/kg/hr) into 3 to 5 Heidenhain pouch dogs fasted for 18 hours, and the gastric juice naturally dropped from the pouch was collected at a 15 minute interval. The acid concentration in the gastric juice was calculated from the amount of a 0.05N NaOH required for titrating up to pH of 7.0 using an automatic titration apparatus (Comtite-7, produced by Hiranuma Sangyo), and the product with the amount of the gastric juice was referred to as an acid secretion amount.
Three hours after commencement of the continuous infusion of pentagastrin, a test drug was orally administered, and an inhibitory ratio to the gastric acid secretion at 15 minute intervals was determined to evaluate the effects of the drug.

Compound	IC50 [1]	Gastric Acid Secretion Inhibitory Ratio/Dose [2]	Gastric Acid Secretion Inhibitory Ratio/Dose ([3]; dose 1 µmol/kg)	Gastric Acid Secretion Inhibitory Ratio/Dose ([3]; dose 10 µmol/kg)
Cc1ccc(C(=O)CN2C(=O)C(NC(=O)Nc3cccc(N(C)C)c3)N=C(c3ccccn3)c3ccccc32)cc1 (stereo not drawn) [Example 35, 1-[2,3-dihydro-1-(4'-methylphenacyl)-2-oxo-5-(2-pyridyl)-1H-1,4-benzodiazepin-3-yl]-3-(3-dimethylaminophenyl)urea]	2.14 nM	76% (0.1 µmol/kg)	83% (1 µmol/kg)	–
Cc1ccc(C(=O)CN2C(=O)C(NC(=O)Nc3cccc(N(C)C)c3)N=C(c3ccccc3)c3ccccc32)cc1 (single isomer, unassigned; (+)) [Example 21, (+)-1-[2,3-Dihydro-1-(4'-methylphenacyl)-2-oxo-5-phenyl-1H-1,4-benzodiazepin-3-yl]-3-(3-dimethylaminophenyl)urea]	0.16 nM	74% (0.1 µmol/kg)	–	90% (10 µmol/kg)
Cc1ccccc1C(=O)CN1C(=O)[C@H](NC(=O)Nc2cccc(N(C)C)c2)N=C(c2ccccc2)c2ccccc21 [Example 3, (R)-1-[2,3-dihydro-1-(2'-methylphenacyl)-2-oxo-5-phenyl-1H-1,4-benzodiazepin-3-yl]-3-(3-dimethylaminophenyl)urea]	0.17 nM	63% (0.1 µmol/kg)	–	57% (10 µmol/kg)
